Data as given in publication PMC11628845 (Acta Pharmaceutica Sinica. B, 2024).
Like-named read-outs stand apart in the source and are kept apart here.

What was measured:
HBV [1] = conditions: cited from earlier work
HBcAg = HBcAg (Hepatitis B virus genotype D subtype ayw, UniProt P03146); format: cell-based
wild type HBV (pHBV 1.3) = test: microbe, parasite or virus in culture; format: cell-based; conditions: read-out: HBeAg IC50
[2] = tested on: wild-type HBV (genotype C); test: microbe, parasite or virus in culture; format: cell-based; conditions: Hepatitis B virus
[3] = tested on: ETV-resistant HBV (rtL180M + A181C + M204V); test: microbe, parasite or virus in culture; format: cell-based; conditions: Hepatitis B virus
HBV [4] = test: HBVcircle transfection system in Huh7 cells; format: cell-based, Hepatitis B virus; conditions: 0.1-200 μmol/L, 48 h
Cp149 protein = Cp149 protein (Hepatitis B virus genotype D subtype ayw, UniProt P03146); test: biochemical; conditions: read-out: inhibition of capsid formation
in vivo = test: in vivo; parameters: species or system ICR mouse
HBV genotypes A‒D = test: Antiviral activity across HBV genotypes A‒D in Huh7; format: cell-based; conditions: Hepatitis B virus, Huh-7, read-out: IC50 across HBV genotypes
HBV [5] = test: HBV infection of HepG2-NTCP cells, secreted HBeAg by ELISA
[6] = Huh-7, read-out: HBeAg IC50, rt180M181C204V

Chain of HBcAg (P03146 whole entry): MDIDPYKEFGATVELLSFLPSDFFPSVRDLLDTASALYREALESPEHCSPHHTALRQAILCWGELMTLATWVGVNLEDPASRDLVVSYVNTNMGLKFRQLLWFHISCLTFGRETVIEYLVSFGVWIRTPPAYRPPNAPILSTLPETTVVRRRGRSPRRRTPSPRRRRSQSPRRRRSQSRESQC
Chain of Cp149 protein (P03146 1-149): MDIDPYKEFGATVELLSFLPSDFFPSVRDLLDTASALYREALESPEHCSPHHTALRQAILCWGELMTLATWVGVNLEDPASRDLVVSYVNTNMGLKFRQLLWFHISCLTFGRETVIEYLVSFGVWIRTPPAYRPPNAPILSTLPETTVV

For `Cc1cc(NC(=O)c2cccc(S(=O)(=O)N[C@H]3CCOC3)c2)ccc1F` [JNJ-632], the IC50 (HBV [1]) is listed as 120 nM.

In the case of `COC(=O)C1=C(C)NC(c2ncc(F)cc2F)=N[C@H]1c1ccc(F)cc1Cl` [Bay 41-4109], the IC50 (HBV [1]; anti-HBV potency) is given as 50 nM.

In the case of `CCOC(=O)C1=C(CN2CCO[C@H](CCC(=O)O)C2)NC(c2nccs2)=N[C@H]1c1ccc(F)cc1Br` [HEC72702, 3-((R)-4-(((R)-6-(2-Bromo-4-fluorophenyl)-5-(ethoxycarbonyl)-2-(thiazol-2-yl)-3,6-dihydropyrimidin-4-yl)methyl)morpholin-2-yl)propanoic acid], the IC50 (HBV [1]) is listed as 39 nM.

In the case of GLS4, the “concentration needed to significantly inhibit HBcAg's expression” value (HBcAg) is reported as “above 10 μmol/L”, the “decrease of HBcAg expression” value (HBcAg) is reported as 56.4% and the IC50 (wild type HBV (pHBV 1.3); Wide type (pHBV 1.3)) is reported as 252 nM. For the same compound, the IC50 (HBV [1]) was 12 nM.

For `CCOC(=O)C1=C(CN2CCN3C(=O)N(CC(C)(C)C(=O)O)C[C@@H]3C2)N=C(c2nccs2)N[C@H]1c1cccc(F)c1C` [RG7907, linvencorvir], the IC50 (HBV [1]) is listed as 6 nM.

With `C=C1[C@H](CO)[C@@H](O)C[C@@H]1n1cnc2c(=O)[nH]c(N)nc21` [ETV, entecavir, reference compound] the IC50 ([2]; Huh-7, read-out: HBeAg IC50) was > 100000 nM and the IC50 [3, 6] was > 100000 nM.

In the case of `COc1ccccc1/C(Br)=C(\NC(=O)c1ccc([N+](=O)[O-])cc1)C(=O)N1CCCCC1` [AT-130], the IC50 (HBV [1]) is given as 127 nM.

In the case of `O=C(NCc1cnc(C(F)(F)F)s1)c1ccc2c(c1)NC(=O)c1ccccc1S2(=O)=O` [vebicorvir], the IC50 (HBV [1]) is listed as 173 nM.

In the case of `COc1ccc(Cc2nc(NC(=O)C34CC5CC(CC(C5)C3)C4)n(C)c2Cc2ccc(OC)c(OC)c2)cc1` [11a, (Z)-N-(5-(3,4-Dimethoxybenzyl)-4-(4-methoxybenzyl)-1-methyl-1,3-dihydro-2H-imidazole-2-ylidene)adamantane-1-carboxamide], the “HBsAg and cccDNA” value (HBV [4]) is reported as “not HBsAg and cccDNA”, the “secreted HBeAg” value (HBV [4]) is reported as “inhibits HBeAg in a concentration-dependent manner” and the IC50 ([2]; Huh-7, read-out: HBeAg IC50) is reported as 12900 nM. For the same compound, the IC50 ([2]; Huh-7, wild-type cells) was 750 nM, the IC50 ([3]; Huh-7, ETV-resistant cells) was 13700 nM and the IC50 [3, 6] was 45700 nM. The IC50 (wild type HBV (pHBV 1.3); Hepatitis B virus) was 15200 nM, the inhibition at 40 µM (Cp149 protein) was 53% and the half-life (in vivo; both, ICR, mouse, in vivo) was 3 to 6.2 h. For the same compound, the bioavailability (in vivo; both, ICR, mouse, in vivo, po, 10 mg/kg) was 24.8 to 39.2%, the plasma clearance (in vivo; po, range over female and male mice) was 202 to 322 mL/min/kg and the IC50 (HBV genotypes A‒D) was 100 to 1970 nM. The “HBV DNA vs control group” value (HBV (pHBV1.3); 50 mpk b.i.d., intraperitoneal) was “no statistical difference”, the “serum HBeAg and HBsAg levels” value (HBV (pHBV1.3); 50 or 100 mpk b.i.d.) was “None of these treatments altered serum HBeAg and HBsAg levels” and the “reduction of HBV DNA in plasma” value (HBV (pHBV1.3); 100 mpk b.i.d., intraperitoneal, Day 5) was 4 fold. The “antiviral effect of combination with TDF” value (HBV (pHBV1.3); TDF 2 mpk q.d. and 11a 100 mpk b.i.d.) was “weak synergistic antiviral effects”, the “serum ALT and AST levels or body weight” value (HBV (pHBV1.3); control vs experimental groups) was “no significant changes” and the “H&E staining in liver tissues” value (HBV (pHBV1.3); mouse, in vivo) was “no obvious pathological changes”. For the same compound, the “levels of HBcAg in liver, immunofluorescence” value (HBV (pHBV1.3); mouse, in vivo) was “significantly reduced the levels of HBcAg”, the IC50 (HBV [5]; Hepatitis B virus, read-out: half inhibitory concentration on HBeAg) was 23700 nM and the “inhibition of HBeAg levels in combination with IFNa2” value (HBV [5]; IFNa2 1000 IU/mL plus 11a 10 and 30 μmol/L, HepG2-NTCP) was “significant synergistic inhibition”.

For `C[C@H](NS(=O)(=O)c1cc(C(=O)Nc2ccc(F)c(C#N)c2)n(C)c1)C(F)(F)F` [JNJ-379], the IC50 (HBV [1]; no reference printed directly) is listed as 69 nM.

In the case of `COC(=O)C1=C(CN2CCOCC2)NC(c2nccs2)=N[C@@H]1c1ccc(F)cc1Br` [NVR-010-001-E2], the IC50 (HBV [1]) is listed as 11 nM.
